From ChEMBL document CHEMBL4364351, “PROTAC Degradation of Bromodomain for the Treatment of Hyperplasia and Cancer” (ACS Med Chem Lett, 2019)
One block for each compound: values may come before it.

How the values were obtained:
Assay type in all cases: cell-based
[1] = target: Protein cereblon/Bromodomain-containing protein 4 (Homo sapiens, UniProt O60885+Q96SW2); test: Protac activity at CRBN/BRD4 in human 22Rv1 cells assessed as c-MYC degradation after 18 hrs by ELISA
[2] = target: Protein cereblon/Serine/threonine-protein kinase TBK1 (Homo sapiens) (UniProt Q9UHD2+Q96SW2); test: Protac activity at CRBN/TBK1 in human Panc02.13 cells assessed as TBK1 degradation at 0.1 to 1 uM after 16 hrs by Western blot analysis relative to control
[3] = target: Protein cereblon/Androgen receptor (Homo sapiens) (UniProt P10275+Q96SW2); test: Protac activity at CRBN/AR in human VCaP cells assessed as AR degradation at 0.0001 to 1 uM after 16 hrs by sandwich ELISA relative to control
[4] = target: Protein cereblon/Steroid hormone receptor ERR1 (Homo sapiens) (UniProt P11474+Q96SW2); test: Protac activity at CRBN/ERRalpha in human NAMALWA cells assessed as ERRalpha degradation at 0.1 to 1 uM after 16 hrs by Western blot analysis relative to control
Protein cereblon/Steroid hormone receptor ERR1 (Homo sapiens), sequence (P11474 whole entry, looked up): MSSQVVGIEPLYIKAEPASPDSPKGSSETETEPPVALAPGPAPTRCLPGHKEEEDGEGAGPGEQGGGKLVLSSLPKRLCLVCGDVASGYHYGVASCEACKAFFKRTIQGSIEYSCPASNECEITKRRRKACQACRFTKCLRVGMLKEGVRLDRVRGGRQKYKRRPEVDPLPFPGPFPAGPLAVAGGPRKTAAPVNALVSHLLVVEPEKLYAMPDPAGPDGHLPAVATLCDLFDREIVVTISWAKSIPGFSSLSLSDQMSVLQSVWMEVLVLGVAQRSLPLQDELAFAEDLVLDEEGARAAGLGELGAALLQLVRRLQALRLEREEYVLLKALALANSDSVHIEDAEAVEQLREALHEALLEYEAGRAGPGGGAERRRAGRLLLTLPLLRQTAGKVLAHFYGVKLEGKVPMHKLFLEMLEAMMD
Protein cereblon/Steroid hormone receptor ERR1 (Homo sapiens), sequence (Q96SW2 whole entry, looked up): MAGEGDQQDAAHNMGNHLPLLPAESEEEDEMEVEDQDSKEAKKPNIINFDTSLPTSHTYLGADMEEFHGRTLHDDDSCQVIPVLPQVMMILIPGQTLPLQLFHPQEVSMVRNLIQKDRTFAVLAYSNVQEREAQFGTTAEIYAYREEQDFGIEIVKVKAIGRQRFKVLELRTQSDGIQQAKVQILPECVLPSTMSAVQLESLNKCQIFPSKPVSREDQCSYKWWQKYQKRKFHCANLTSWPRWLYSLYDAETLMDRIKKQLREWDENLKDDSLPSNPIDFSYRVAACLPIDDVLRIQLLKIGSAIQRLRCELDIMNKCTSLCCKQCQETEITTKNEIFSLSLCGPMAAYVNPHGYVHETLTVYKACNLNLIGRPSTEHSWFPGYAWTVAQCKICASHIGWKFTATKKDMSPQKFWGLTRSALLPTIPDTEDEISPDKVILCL

Protein cereblon/Androgen receptor (Homo sapiens), sequence (P10275 whole entry, looked up): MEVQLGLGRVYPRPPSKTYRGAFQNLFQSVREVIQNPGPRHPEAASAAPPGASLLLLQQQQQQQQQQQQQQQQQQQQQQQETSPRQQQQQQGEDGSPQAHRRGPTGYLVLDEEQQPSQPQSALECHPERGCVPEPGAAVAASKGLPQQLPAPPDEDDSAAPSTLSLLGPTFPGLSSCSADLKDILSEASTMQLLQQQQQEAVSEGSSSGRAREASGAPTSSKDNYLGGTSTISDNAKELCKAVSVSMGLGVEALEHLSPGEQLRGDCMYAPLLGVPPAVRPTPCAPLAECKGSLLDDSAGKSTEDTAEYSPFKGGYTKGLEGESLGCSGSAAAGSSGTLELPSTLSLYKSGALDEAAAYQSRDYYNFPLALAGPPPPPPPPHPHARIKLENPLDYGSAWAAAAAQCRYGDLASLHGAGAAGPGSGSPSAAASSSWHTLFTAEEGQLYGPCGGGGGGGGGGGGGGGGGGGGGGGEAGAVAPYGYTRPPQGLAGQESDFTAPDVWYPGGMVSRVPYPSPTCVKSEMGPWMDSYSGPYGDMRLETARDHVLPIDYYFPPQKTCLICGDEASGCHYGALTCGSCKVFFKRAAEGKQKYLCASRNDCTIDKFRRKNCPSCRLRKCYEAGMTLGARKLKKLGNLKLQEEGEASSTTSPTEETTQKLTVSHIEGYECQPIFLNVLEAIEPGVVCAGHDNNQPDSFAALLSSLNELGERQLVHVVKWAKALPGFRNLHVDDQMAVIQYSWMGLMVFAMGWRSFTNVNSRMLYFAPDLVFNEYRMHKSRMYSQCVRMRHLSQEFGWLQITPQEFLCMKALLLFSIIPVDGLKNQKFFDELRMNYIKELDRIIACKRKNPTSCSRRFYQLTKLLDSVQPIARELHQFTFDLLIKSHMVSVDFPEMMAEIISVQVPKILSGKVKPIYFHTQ
Protein cereblon/Androgen receptor (Homo sapiens), sequence (Q96SW2 whole entry, looked up): as the sequence (Q96SW2 whole entry, looked up) above
Protein cereblon/Bromodomain-containing protein 4, sequence (Q96SW2 whole entry, looked up, other chains not shown): as the sequence (Q96SW2 whole entry, looked up) above
Protein cereblon/Serine/threonine-protein kinase TBK1 (Homo sapiens), sequence (Q96SW2 whole entry, looked up): as above
Protein cereblon/Serine/threonine-protein kinase TBK1 (Homo sapiens), sequence (Q9UHD2 whole entry, looked up): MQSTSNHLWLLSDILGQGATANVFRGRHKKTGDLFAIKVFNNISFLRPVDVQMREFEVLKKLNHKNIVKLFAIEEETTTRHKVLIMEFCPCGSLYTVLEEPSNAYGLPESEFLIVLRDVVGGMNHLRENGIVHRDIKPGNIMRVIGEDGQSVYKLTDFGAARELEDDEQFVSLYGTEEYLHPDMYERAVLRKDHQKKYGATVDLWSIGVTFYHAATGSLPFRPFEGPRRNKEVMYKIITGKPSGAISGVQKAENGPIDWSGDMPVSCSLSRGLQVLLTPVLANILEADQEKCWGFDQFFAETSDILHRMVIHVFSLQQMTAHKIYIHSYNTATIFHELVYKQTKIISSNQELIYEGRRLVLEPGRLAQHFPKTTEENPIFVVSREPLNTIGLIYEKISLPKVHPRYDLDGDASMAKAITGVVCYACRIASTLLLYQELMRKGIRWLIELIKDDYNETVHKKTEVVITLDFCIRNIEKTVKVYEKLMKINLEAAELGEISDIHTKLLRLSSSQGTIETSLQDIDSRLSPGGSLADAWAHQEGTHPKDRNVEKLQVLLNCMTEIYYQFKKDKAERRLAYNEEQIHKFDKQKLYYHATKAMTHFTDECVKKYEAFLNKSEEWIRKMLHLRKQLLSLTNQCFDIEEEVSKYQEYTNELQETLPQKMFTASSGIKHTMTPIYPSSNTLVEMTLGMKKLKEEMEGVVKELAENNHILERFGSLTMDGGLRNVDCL

Compound: CN(CCCNc1nc(Nc2ccc(OCCOCCOCCOCCOCCOCCNc3cccc4c3C(=O)N(C3CCC(=O)NC3=O)C4=O)cc2)ncc1Br)C(=O)C1CCC1 (configuration not stated)
Activity [2]: > 50%

Compound: CC1(C)[C@H](NC(=O)c2ccc(OCCCCCOCCCNc3cccc4c3C(=O)N(C3CCC(=O)NC3=O)C4=O)cc2)C(C)(C)[C@H]1Oc1ccc(C#N)c(Cl)c1 (some centres not stated)
Activity [3]: > 50%

Compound: CN(CCCNc1nc(Nc2ccc(OCCOCCOCCOCCOCCNc3cccc4c3C(=O)N(C3CCC(=O)NC3=O)C4=O)cc2)ncc1Br)C(=O)C1CCC1 (configuration not stated)
Activity [2]: > 50%

Compound: COc1cc(/C=C2\SC(=O)N(CCCOCCNc3cccc4c3C(=O)N(C3CCC(=O)NC3=O)C4=O)C2=O)ccc1Oc1ccc(C#N)cc1C(F)(F)F (configuration not stated)
Activity [4]: > 50%

Compound: CC1(C)C(=O)N(c2ccc(C#N)c(C(F)(F)F)c2)C(=S)N1c1ccc(-c2ccc(OCCCCCNc3cccc4c3C(=O)N(C3CCC(=O)NC3=O)C4=O)cc2)cc1 (configuration not stated)
Activity [3]: > 50%

Next, values leading:

IC50 [1]: < 0.05 µM
Compound: Cc1sc2c(c1C)C(c1ccc(Cl)cc1)=NC(CC(=O)N[C@@H](C)c1ccc(OCCOCCNc3cccc4c3C(=O)N(C3CCC(=O)NC3=O)C4=O)cc1)c1nnc(C)n1-2 (some centres not stated)

IC50 [1]: < 0.05 µM
Compound: Cc1sc2c(c1C)C(c1ccc(Cl)cc1)=NC(CC(=O)NCCOCCNc1cccc3c1C(=O)N(C1CCC(=O)NC1=O)C3=O)c1nnc(C)n1-2 (configuration not stated)
